From patent publication US11306083B2, “Amide substituted imidazo[4,5-C]quinoline compounds with a branched chain linking group for use as an immune response modifier” (3M INNOVATIVE PROPERTIES COMPANY, priority 2017, dated 2022)

What was measured:
Type in all cases: cell-based
Conditions in all cases: 21-24 hrs, lowest concentration giving cytokine at least 2× negative control, tested 0.01-30 micromolar
[1] = system: IFN-gamma induction in human peripheral blood mononuclear cells (PBMC); experiment: Cytokine induction in human cells (PBMC): IFN-gamma by multiplex bead assay
Protocol: (§1) Cytokine Induction in Human Cells
(§2) Whole blood was obtained from healthy human donors and collected by venipuncture into vacutainer tubes or syringes containing EDTA. Human peripheral blood mononuclear cells (PBMC) were purified from the whole blood by density gradient centrifugation. Histopaque 1077 (15 mL, Sigma, St. Louis, Mo.) was transferred to 6×50 mL sterile polypropylene conical tubes. The Histopaque was overlayed with 15-25 mL of blood diluted 1:2 in Hank's Balanced Salts Solution (HBSS) (Gibco, Life Technology, Grand Island N.Y.). The tubes were then centrifuged at 1370 rpm for 30 minutes at 20° C., with no brake (400×g, GH 3.8A Rotor).
(§3) The interface (buffy coat) containing the PBMC was collected and placed in a new sterile 50 mL conical polypropylene centrifuge tube. The PBMC were mixed with an equal volume of HBSS (about 20 mL from the interface and about 20 mL of HBSS), and then centrifuged at 1090 rpm, 10 min, 20° C., with brake (270×g, GH 3.8A Rotor). After completing centrifugation, the cells were resuspended in 2-3 mL ACK Red blood cell lysis buffer (ammonium chloride potassium solution, Gibco, Life Technology) and incubated for 2-5 minutes at 20° C. […]
(§4) The number of viable cells was determined by counting with a Miltenyi FACS instrument (Miltenyi Biotec Inc., San Diego, Calif.) or by using a hemacytometer. […] Ten microliters of the diluted cells were then applied to the hemacytometer, and the number of viable PBMC were determined by microscopy. […]
(§5) IFN-alpha cytokine levels (pg/mL) were measured by ELISA (human IFN-α, pan specific, Mabtech, Cincinnati, Ohio). IFN-gamma and TNF-alpha levels (pg/mL) were measured by multiplex bead assay (magnetic beads, R & D Systems Minneapolis, Minn.) according to the manufacturer's instructions.
(§6) Specifically, the minimum effective concentration of each compound (micromolar) was determined as the lowest concentration of the compound that induced a measured cytokine response at a level ([…]) that was at least 2× greater than that observed with the negative control wells.

[2] = system: IFN-alpha induction in human peripheral blood mononuclear cells (PBMC); experiment: Cytokine induction in human cells (PBMC): IFN-alpha by ELISA
Protocol: as §1, §2, §3, §4, §5, §6

[3] = system: TNF-alpha induction in human peripheral blood mononuclear cells (PBMC); experiment: Cytokine induction in human cells (PBMC): TNF-alpha by multiplex bead assay
Protocol: as §1, §2, §3, §4, §5, §6

| SMILES | MEC to Induce Cytokine IFN-gamma [1] | MEC to Induce Cytokine IFN-alpha [2] | MEC to Induce Cytokine TNF-alpha [3] |
| --- | --- | --- | --- |
| CCCCCCCCCCCCCCCCCC(=O)NCCC[C@@H](COCC)n1cnc2c(N)nc3ccccc3c21 [Example 1, N-[(4S)-4-(4-aminoimidazo[4,5-c]quinolin-1-yl)-5-ethoxy-pentyl]octadecanamide] | 1.1 µM | ≤0.01 µM | ≤0.01 µM |
| CCCCCCCCCCCCCC(=O)NCCC[C@@H](COCC)n1cnc2c(N)nc3ccccc3c21 [Example 2, N-[(4S)-4-(4-aminoimidazo[4,5-c]quinolin-1-yl)-5-ethoxy-pentyl]tetradecanamide] | 0.04 µM | ≤0.01 µM | ≤0.01 µM |
| CCCCCCCCCC(=O)NCCC[C@@H](COCC)n1cnc2c(N)nc3ccccc3c21 [Example 3, N-[(4S)-4-(4-aminoimidazo[4,5-c]quinolin-1-yl)-5-ethoxy-pentyl]decanamide] | 0.04 µM | ≤0.01 µM | ≤0.01 µM |
